Where two headings read alike, the source gives them in different places.
How the values were obtained:
hClpP = target: T1, hClpP (Homo sapiens, UniProt Q16740); assay: activating ClpP hydrolysis of FITC-casein (fluorescence kinetic detection); assay type: biochemical; conditions: hClpP 1 μM, FITC-Casein 4 μM, 37° C.
T1 construct: made in house
In short: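 hClpP at 1 μM final preincubated with compounds (assay-buffer dilutions 200 μM–2 nM, before mixing) 30 min at 37 °C, then 4 μM final FITC-casein added. Fluorescence read kinetically at 37 °C every 1 min for 15 min, duplicate wells.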

MV4; 11 cells = assay: inhibiting the growth of MV4; 11 cells; assay type: cell-based

T1 sequence (Q16740 57-277): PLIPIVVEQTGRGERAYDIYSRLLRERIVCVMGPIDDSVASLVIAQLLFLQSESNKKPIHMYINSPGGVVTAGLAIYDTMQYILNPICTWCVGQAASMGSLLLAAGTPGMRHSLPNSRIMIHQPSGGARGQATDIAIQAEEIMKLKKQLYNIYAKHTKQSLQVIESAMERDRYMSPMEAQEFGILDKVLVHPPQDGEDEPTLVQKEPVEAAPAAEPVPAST

| EC50 (hClpP) | IC50 (MV4; 11 cells; Homo sapiens) | IC50 (MV4; 11 cells) | SMILES |
| --- | --- | --- | --- |
| 1000 to 10000 nM | 1000 to 10000 nM | – | O=c1c2c(n3ncnc3n1Cc1ccc(Cl)cc1)CCN(Cc1cccc(F)c1)C2 [Compound I-153, 4-(4-chlorobenzyl)-7-(3-fluorobenzyl)-6,7,8,9-tetrahydropyrido[3,4-e][1,2,4]triazolo[1,5-a]pyrimidine-5(4H)-one] |
| < 1000 nM | < 1000 nM | – | N#Cc1cccc(CN2CCc3c(c(=O)n(Cc4ccc(Cl)cc4)c4nccn34)C2)c1 [Compound I-121, 7-(3-cyanobenzyl)-4-(4-chlorobenzyl)-6,7,8,9-tetrahydroimidazo[1,2-a]pyrido[3,4-e]pyrimidine-5(4H)-one] |
| < 1000 nM | < 1000 nM | – | CCc1ccc(Cn2c(=O)c3c(n4ccnc24)CCN(Cc2cccc(F)c2)C3)cc1 [Compound I-138, 7-(3-fluorobenzyl)-4-(4-ethylbenzyl)-6,7,8,9-tetrahydroimidazo[1,2-a]pyrido[3,4-e]pyrimidine-5(4H)-one] |
| 1000 to 10000 nM | 1000 to 10000 nM | – | O=c1c2c(n3nccc3n1Cc1ccc(Cl)cc1)CCN(Cc1cccc(Cl)c1)C2 [Compound I-162, 4-(4-chlorobenzyl)-7-(3-chlorobenzyl)-6,7,8,9-tetrahydropyrazolo[1,5-a]pyrido[3,4-e]pyrimidine-5(4H)-one] |
| < 1000 nM | < 1000 nM | – | O=c1c2c(c3cscc3n1Cc1ccc(C(F)(F)F)cc1)CCN(Cc1ccccc1)C2 [Compound I-102, 7-benzyl-4-(4-trifluoromethylbenzyl)-6,7,8,9-tetrahydrothieno[3,4-C][2,7]naphthyridine-5(4H)-one] |
| 10000 to 100000 nM | 1000 to 10000 nM | – | O=c1c2c(c3cccnc3n1Cc1ccccc1)CCN(CC1CCC1)C2 [Compound I-2, 6-benzyl-3-(cyclobutylmethyl)-2,3,4,6-tetrahydropyrido[3,4-c][1,8]naphthyridine-5-(1H)-one] |
| 10000 to 100000 nM | – | 1000 to 10000 nM | O=c1c2c(c3cccnc3n1Cc1cc(Cl)ccn1)CCN(Cc1ccccc1)C2 [Compound I-64, 3-benzyl-6-((4-chloropyridin-2-yl)methyl)-2,3,4,6-tetrahydropyrido[3,4-c][1,8]naphthyridine-5-(1H)-one] |
| 1000 to 10000 nM | 1000 to 10000 nM | – | N#Cc1cccc(CN2CCc3c(c(=O)n(Cc4ccccc4)c4ccnn34)C2)c1 [Compound I-157, 4-benzyl-7-(3-cyanobenzyl)-6,7,8,9-tetrahydropyrazolo[1,5-a]pyrido[3,4-e]pyrimidine-5(4H)-one] |
| < 1000 nM | < 1000 nM | – | COc1ccc(Cn2c(=O)c3c(n4ccnc24)CCN(Cc2cccc(C)c2)C3)cc1 [Compound I-145, 7-(3-methylbenzyl)-4-(4-methoxybenzyl)-6,7,8,9-tetrahydroimidazo[1,2-a]pyrido[3,4-e]pyrimidine-5(4H)-one] |
| < 1000 nM | < 1000 nM | – | O=c1c2c(c3cccnc3n1Cc1ccccc1)CCN(Cc1cccc(Br)c1)C2 [Compound I-14, 6-benzyl-3-(3-bromobenzyl)-2,3,4,6-tetrahydropyrido[3,4-c][1,8]naphthyridine-5-(1H)-one] |
| < 1000 nM | < 1000 nM | – | O=c1c2c(c3cccnc3n1Cc1ccc(Cl)cc1)CCN(Cc1cccc(Br)c1)C2 [Compound I-76, 3-(3-bromobenzyl)-6-(4-chlorobenzyl)-2,3,4,6-tetrahydropyrido[3,4-c][1,8]naphthyridine-5-(1H)-one] |
| < 1000 nM | < 1000 nM | – | O=c1c2c(c3cccnc3n1Cc1ccc(F)cc1)CCN(Cc1ccccc1)C2 [Compound I-52, 3-benzyl-6-(4-fluorobenzyl)-2,3,4,6-tetrahydropyrido[3,4-c][1,8]naphthyridine-5-(1H)-one] |
| < 1000 nM | < 1000 nM | – | Cc1ccc(Cn2c(=O)c3c(n4ccnc24)CCN(Cc2cccc(F)c2)C3)cc1 [Compound I-133, 7-(3-fluorobenzyl)-4-(4-methylbenzyl)-6,7,8,9-tetrahydroimidazo[1,2-a]pyrido[3,4-e]pyrimidine-5(4H)-one] |
| 1000 to 10000 nM | 1000 to 10000 nM | – | N#Cc1cccc(CN2CCc3c(c(=O)n(Cc4ccc(Cl)cc4)c4cncn34)C2)c1 [Compound I-167, 7-(3-cyanobenzyl)-4-(4-chlorobenzyl)-6,7,8,9-tetrahydroimidazo[1,5-a]pyrido[3,4-e]pyrimidine-5(4H)-one] |
| < 1000 nM | < 1000 nM | – | O=c1c2c(n3ccnc3n1Cc1ccc(F)cc1)CCN(Cc1cccc(Cl)c1)C2 [Compound I-114, 7-(3-chlorobenzyl)-4-(4-fluorobenzyl)-6,7,8,9-tetrahydroimidazo[1,2-a]pyrido[3,4-e]pyrimidine-5(4H)-one] |
| < 1000 nM | < 1000 nM | – | Cc1ccc(Cn2c(=O)c3c(c4cccnc42)CCN(Cc2cccc(C#N)c2)C3)cc1 [Compound I-91, 6-(4-methylbenzyl)-3-(3-cyanobenzyl)-2,3,4,6-tetrahydropyrido[3,4-c][1,8]naphthyridine-5-(1H)-one] |
| 10000 to 100000 nM | 1000 to 10000 nM | – | Cn1cncc1CN1CCc2c(c(=O)n(Cc3ccccc3)c3ncccc23)C1 [Compound I-33, 6-benzyl-3-((1-methyl-1H-imidazol-5-yl)methyl)-2,3,4,6-tetrahydropyrido[3,4-c][1,8]naphthyridine-5-(1H)-one] |

| EC50 (hClpP) | IC50 (MV4; 11 cells; Homo sapiens) | IC50 (MV4; 11 cells) | SMILES |
| --- | --- | --- | --- |
| < 1000 nM | < 1000 nM | – | O=c1c2c(c3cccnc3n1Cc1ccc(F)cc1)CCN(Cc1cccc(Cl)c1)C2 [Compound I-72, 3-(3-chlorobenzyl)-6-(4-fluorobenzyl)-2,3,4,6-tetrahydropyrido[3,4-c][1,8]naphthyridine-5-(1H)-one] |
| < 1000 nM | < 1000 nM | – | Cc1ccc(Cn2c(=O)c3c(c4cccnc42)CCN(Cc2ccccc2)C3)cc1 [Compound I-55, 3-benzyl-6-(4-methylbenzyl)-2,3,4,6-tetrahydropyrido[3,4-c][1,8]naphthyridine-5-(1H)-one] |
| < 1000 nM | < 1000 nM | – | Cc1cccc(CN2CCc3c(c(=O)n(Cc4ccc(F)cc4F)c4nccn34)C2)c1 [Compound I-125, 7-(3-methylbenzyl)-4-(2,4-difluorobenzyl)-6,7,8,9-tetrahydroimidazo[1,2-a]pyrido[3,4-e]pyrimidine-5(4H)-one] |
| 1000 to 10000 nM | 1000 to 10000 nM | – | N#Cc1cccc(CN2CCc3c(c(=O)n(Cc4ccc([N+](=O)[O-])cc4)c4ncccc34)C2)c1 [Compound I-88, 6-(4-nitrobenzyl)-3-(3-cyanobenzyl)-2,3,4,6-tetrahydropyrido[3,4-c][1,8]naphthyridine-5-(1H)-one] |
| < 1000 nM | < 1000 nM | – | O=c1c2c(c3cccnc3n1Cc1ccc(Br)cc1)CCN(Cc1ccccc1)C2 [Compound I-54, 3-benzyl-6-(4-bromobenzyl)-2,3,4,6-tetrahydropyrido[3,4-c][1,8]naphthyridine-5-(1H)-one] |
| 1000 to 10000 nM | 1000 to 10000 nM | – | O=c1c2c(n3ncnc3n1Cc1ccc(C(F)(F)F)cc1)CCN(Cc1ccccc1)C2 [Compound I-149, 4-(4-trifluoromethylbenzyl)-7-benzyl-6,7,8,9-tetrahydropyrido[3,4-e][1,2,4]triazolo[1,5-a]pyrimidine-5(4H)-one] |
| < 1000 nM | < 1000 nM | – | O=c1c2c(n3ccnc3n1Cc1ccccc1)CCN(Cc1cccc(Cl)c1)C2 [Compound I-109, 7-(3-chlorobenzyl)-4-benzyl-6,7,8,9-tetrahydroimidazo[1,2-a]pyrido[3,4-e]pyrimidine-5(4H)-one] |
| < 1000 nM | < 1000 nM | – | O=c1c2c(c3sccc3n1Cc1ccc(C(F)(F)F)cc1)CCN(Cc1ccccc1)C2 [Compound I-103, 7-benzyl-4-(4-trifluoromethylbenzyl)-6,7,8,9-tetrahydrothieno[3,2-C][2,7]naphthyridine-5(4H)-one] |
| < 1000 nM | < 1000 nM | – | N#Cc1cccc(CN2CCc3c(c(=O)n(Cc4ccccc4)c4nccn34)C2)c1 [Compound I-111, 7-(3-cyanobenzyl)-4-benzyl-6,7,8,9-tetrahydroimidazo[1,2-a]pyrido[3,4-e]pyrimidine-5(4H)-one] |
| < 1000 nM | < 1000 nM | – | N#Cc1cccc(CN2CCc3c(c(=O)n(Cc4ccc(C(F)(F)F)cc4)c4nccn34)C2)c1 [Compound I-131, 7-(3-cyanobenzyl)-4-(4-trifluoromethylbenzyl)-6,7,8,9-tetrahydroimidazo[1,2-a]pyrido[3,4-e]pyrimidine-5(4H)-one] |
| 1000 to 10000 nM | 1000 to 10000 nM | – | O=c1c2c(n3ccnc3n1Cc1ccc3c(c1)OCO3)CCN(Cc1cccc(Cl)c1)C2 [Compound I-147, 7-(3-chlorobenzyl)-4-([1,3]benzodioxol-5-ylmethyl)-6,7,8,9-tetrahydroimidazo[1,2-a]pyrido[3,4-e]pyrimidine-5(4H)-one] |
| < 1000 nM | < 1000 nM | – | O=c1c2c(n3ccnc3n1Cc1ccc(C(F)(F)F)cc1)CCN(Cc1ccccc1)C2 [Compound I-127, 7-benzyl-4-(4-trifluoromethylbenzyl)-6,7,8,9-tetrahydroimidazo[1,2-a]pyrido[3,4-e]pyrimidine-5(4H)-one] |
| 10000 to 100000 nM | 1000 to 10000 nM | – | O=c1c2c(c3cccnc3n1CC1CCC1)CCN(Cc1ccccc1)C2 [Compound I-37, 3-benzyl-6-(cyclobutylmethyl)-2,3,4,6-tetrahydropyrido[3,4-c][1,8]naphthyridine-5-(1H)-one] |
| 10000 to 100000 nM | 1000 to 10000 nM | – | O=c1c2c(c3cccnc3n1Cc1ccccc1)CCN(Cc1ccncc1)C2 [Compound I-29, 6-benzyl-3-(pyridin-4-ylmethyl)-2,3,4,6-tetrahydropyrido[3,4-c][1,8]naphthyridine-5-(1H)-one] |
| 10000 to 100000 nM | 1000 to 10000 nM | – | Cn1cnc(Cn2c(=O)c3c(c4cccnc42)CCN(Cc2ccccc2)C3)c1 [Compound I-66, 3-benzyl-6-((1-methyl-1H-imidazol-4-yl)methyl)-2,3,4,6-tetrahydropyrido[3,4-c][1,8]naphthyridine-5-(1H)-one] |
| < 1000 nM | < 1000 nM | – | O=c1c2c(n3ccnc3n1Cc1ccc(F)cc1)CCN(Cc1ccccc1)C2 [Compound I-112, 7-benzyl-4-(4-fluorobenzyl)-6,7,8,9-tetrahydroimidazo[1,2-a]pyrido[3,4-e]pyrimidine-5(4H)-one] |
